Test results taken from the NIST ThermoML archive (doi:10.1016/j.fluid.2018.04.024).

Conditions: Liquid, Vibrating tube method

CCCCCCCCC(=O)OC [methyl nonanoate]
mass density [kg/m3]
Conditions	293.15 K	303.15 K	313.15 K	323.15 K	333.15 K	343.15 K	353.15 K	363.15 K
100 kPa	874.53	865.62	857.46	848.37	839.92	831.17	822.78	814.24
1000 kPa	874.57	866.39	857.68	849.17	840.72	832.28	823.57	815.28
3000 kPa	876.13	867.88	859.33	850.82	842.6	834.1	825.7	817.47
5000 kPa	877.24	869.35	860.86	852.43	844.26	835.98	827.54	819.49
10000 kPa	880.79	872.9	864.63	856.42	848.44	840.27	832.17	824.1
15000 kPa	884.05	876.32	868.21	860.21	852.27	844.44	836.71	829.08
20000 kPa	887.23	879.53	871.68	863.98	856.18	848.65	840.79	833.26
25000 kPa	890.33	882.74	875.06	867.27	859.9	852.29	844.86	837.27
30000 kPa	893.33	885.85	878.23	870.68	863.32	856.04	848.7	841.4
35000 kPa	896.14	888.79	881.36	873.86	866.68	859.58	852.44	845.31
40000 kPa	898.87	891.61	884.18	877.04	870.12	862.91	855.87	849.11
50000 kPa	904.41	897.21	890.09	883.08	876.13	869.47	862.53	855.98
60000 kPa	909.15	902.44	895.33	888.79	881.95	875.25	868.9	862.59

CCCCCC(=O)OC [methyl hexanoate]
mass density [kg/m3]
Conditions	293.15 K	303.15 K	313.15 K	323.15 K	333.15 K	343.15 K	353.15 K	363.15 K
100 kPa	884.48	874.56	865.26	855.18	845.43	835.2	825.57	815.64
1000 kPa	884.65	875.42	865.64	856.16	846.26	836.39	826.5	816.87
3000 kPa	886.42	877.13	867.5	858.01	848.43	838.54	828.96	819.47
5000 kPa	887.67	878.76	869.26	859.89	850.38	840.78	831.13	821.87
10000 kPa	891.64	882.75	873.55	864.44	855.15	845.7	836.55	827.32
15000 kPa	895.33	886.63	877.59	868.76	859.63	850.49	841.75	833.11
20000 kPa	898.81	890.21	881.48	872.98	864	855.28	846.44	837.93
25000 kPa	902.28	893.78	885.29	876.76	868.18	859.46	851.08	842.64
30000 kPa	905.55	897.24	888.86	880.55	871.99	863.7	855.46	847.27
35000 kPa	908.69	900.52	892.33	884.15	875.8	867.75	859.68	851.7
40000 kPa	911.73	903.67	895.54	887.68	879.63	871.46	863.59	856.02
50000 kPa	917.83	909.79	901.99	894.33	886.48	878.77	871.08	863.88
60000 kPa	923.06	915.57	907.83	900.65	892.97	885.3	878.16	871.24

CCCC(=O)OC [methyl butanoate]
mass density [kg/m3]
Conditions	293.15 K	303.15 K	313.15 K	323.15 K	333.15 K	343.15 K	353.15 K	363.15 K
100 kPa	898.42	886.68	875.83	864.35	853.11	841.05	829.58	817.31
1000 kPa	898.68	887.75	876.3	865.42	854.08	842.4	830.8	818.87
3000 kPa	900.65	889.67	878.42	867.62	856.55	844.95	833.71	821.94
5000 kPa	902.15	891.54	880.45	869.76	858.82	847.57	836.31	824.91
10000 kPa	906.55	895.99	885.34	875.02	864.28	853.35	842.65	831.48
15000 kPa	910.63	900.35	889.92	879.93	869.44	858.9	848.71	838.19
20000 kPa	914.51	904.45	894.25	884.63	874.46	864.31	854.19	843.84
25000 kPa	918.33	908.4	898.53	888.92	879.2	869.1	859.51	849.26
30000 kPa	921.95	912.18	902.47	893.19	883.56	873.89	864.51	854.68
35000 kPa	925.38	915.86	906.46	897.21	887.79	878.44	869.35	859.76
40000 kPa	928.67	919.34	910.02	901.15	892.1	882.65	873.76	864.61
50000 kPa	935.38	926.18	917.24	908.62	899.8	890.89	882.24	873.56
60000 kPa	941.12	932.54	923.73	915.65	906.96	898.16	890.18	881.85
